Experimental data as given in PMC7029132, “The pentose phosphate pathway of cellulolytic clostridia relies on 6-phosphofructokinase instead of transaldolase” (The Journal of Biological Chemistry, 2019).

Target: T1, rabbit aldolase (Oryctolagus cuniculus, UniProt P00883)
T1 construct: gene ALDOA; commercial native enzyme (Sigma A8811)
T1 sequence (P00883 2-364): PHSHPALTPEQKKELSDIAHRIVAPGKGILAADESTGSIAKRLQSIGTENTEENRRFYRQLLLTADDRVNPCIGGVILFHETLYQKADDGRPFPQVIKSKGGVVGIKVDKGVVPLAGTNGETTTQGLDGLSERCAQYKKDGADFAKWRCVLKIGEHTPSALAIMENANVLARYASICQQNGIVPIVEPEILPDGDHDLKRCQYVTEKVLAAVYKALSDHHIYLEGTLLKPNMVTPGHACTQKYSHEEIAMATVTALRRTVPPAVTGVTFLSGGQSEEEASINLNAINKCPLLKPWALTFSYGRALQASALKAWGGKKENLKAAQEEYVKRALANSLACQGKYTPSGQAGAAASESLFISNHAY
Test: LC-MS time course of E4P and DHAP formation, SBP made in situ by PPi-PFK
Assay type: biochemical
Settings: 100 mM Tris-HCl pH 7 at 55 °C, 5 mM MgCl2, 5 mM PPi, 1 mM S7P, 4 units aldolase

O=C(COP(=O)(O)O)[C@@H](O)[C@H](O)[C@H](O)[C@H](O)COP(=O)(O)O [SBP]
LC-MS time course of E4P and DHAP formation, SBP made in situ by PPi-PFK: rabbit aldolase was able to convert the formed SBP to E4P and DHAP
